From US12186330B2, “Compositions for improving cell viability and methods of use thereof” (Amylyx Pharmaceuticals Inc., priority 2013, dated 2025)
Several values for one entry are separate records, joined by “and”; a condition that tells them apart may be missing. Equal entries are not always repeated.

Tests used:
[1] = test system: rat cortical neuron culture; test: Cell viability by PrestoBlue after hydrogen peroxide exposure, peroxide exposure neuronal cell model; type: cell-based; details: for protection of cell viability against peroxide exposure (FIG. 1, significance): PrestoBlue, H2O2 exposure, rat cortical neuron culture
Procedure: (§1) Cortical mixed cultures were prepared from E18 Wistar rat embryos (Laboratory Animal Center, Kuopio, Finland). The cortices were dissected out and the tissue was cut to small pieces. The cells were separated by 15-min incubation with DNase and papain. The cells were collected by centrifugation (1500 rpm, 5 min). The tissue was triturated with a pipette and the cells were plated (3×10^5 cells/cm^2) on poly-L-lysine coated 48 wells in MEM supplemented with 2 g/l glucose, 2 mM glutamine, 0.1 μg/ml gentamicin, and 10% heat-inactivated horse serum (HS-HI) and […] bovine serum (FBS-HI). After three days in vitro, medium containing MEM with supplements and 5% both sera was changed to the cells. On day 6 in vitro, the unwanted cell division was inhibited by adding cytosine arabinoside (10 μM final concentration) for 24 h. The cultures were refed with MEM with supplements and 5% HS-HI before experiments.
(§2) The wells in good shape were chosen for experiment on day 10 in vitro. Test compounds were diluted in MEM with supplements and 5% HS-HI. 24 h later, 300 μM NMDA for 24 h was used as a control for total neuronal death, and H2O2 for 1 h was used to induce approximately 30-60% cell death. DFX (100 μM) was used as a potential positive control for inhibition of H2O2-induced cell death. Wells treated with medium only served as 0-control. Test compounds were pipetted to the cells 24 h before adding H2O2. After 60 min, the medium was removed and media containing the compounds was pipetted to the wells for 24 h.
After the cell culture medium was collected for LDH measurement, 100 μl PrestoBlue solution (1:10 dilution of PrestoBlue reagent (Invitrogen, # A13261, lot 915815C) in culture medium) was added to the wells for 1 h incubation at +37° C. CO2 incubator. Fluorescence at 560 nm excitation/615 nm emission was measured using Victor fluororeader (PerkinElmer).
(§3) The number of wells per compound concentration used was 6 (n=6). One (1) concentration of 100 μM TUDCA and 1 mM 4-PBA separately and together were studied. Statistical analysis were calculated on Microsoft excel. The values were analyzed two-tailed, equal variance t-tests comparing all conditions to all other conditions.

[2] = test system: rat cortical neuron culture; test: Cell death by LDH release after hydrogen peroxide exposure, peroxide exposure neuronal cell model; type: cell-based; details: for Cell Death Evaluated By LDH Following H2O2 Exposure, Average (%): compounds added 24 h before and for 24 h after, TUDCA 100 uM, 4-PBA 1 mM, DFX 100 uM, n=6, No Treatment = 0%; for protection against cell death after peroxide exposure (FIG. 2, significance): LDH, H2O2 exposure, rat cortical neuron culture
Procedure: as §1, §2
After 24 h the culture media of all wells was collected and possible cell debris was removed by centrifugation (13 000 rpm, 3 min). A-100-μl aliquot was pipetted into a micro titer plate as duplicates, and equal amount of LDH reagent was pipetted to the wells. The absorbance at 340 nm was measured immediately using a 3-min kinetic measurement protocol in Multiskan Ascent ELISA reader (Thermo, Finland). The change in absorbance/min was determined, which is directly proportional to the released LDH (=cell death).
as §3

[3] = H2O2 40 uM for 1 h, compounds added 24 h before and for 24 h after, TUDCA 100 uM, 4-PBA 1 mM, DFX 100 uM, n=6, No Treatment = 100%
[4] = Rattus norvegicus, Cortical neurone, H2O2 40 uM for 1 h, compounds added 24 h before and for 24 h after, TUDCA 100 uM, 4-PBA 1 mM, DFX 100 uM, n=6, No Treatment = 100%, read-out: Cell Viability Evaluated By PrestoBlue Following H2O2 Exposure, Average (%)

Row | Structure (SMILES) | Cell Viability Evaluated By PrestoBlue Following H2O2 Exposure, Average (%) [1, 3] [%] | protection of cell viability against peroxide exposure (FIG. 1, significance) [1] | viability at 1000 µM [1, 4] [%] | Cell Death Evaluated By LDH Following H2O2 Exposure, Average (%) ([2]; H2O2 40 uM for 1 h) | protection against cell death after peroxide exposure (FIG. 2, significance) [2] | viability at 40 µM ([1]; Rattus norvegicus, Cortical neurone, 1 h, H2O2 40 uM for 1 h, no test compound (the text's 'control'), read-out: Cell Viability Evaluated By PrestoBlue, Average (%), H2O2 exposure alone) [%] | Cell Death Evaluated By LDH, Average (%), H2O2 exposure alone ([2]; H2O2 40 uM for 1 h, no test compound (the text's 'control')) [%] | Cell Death Evaluated By LDH, Average (%), NMDA negative control ([2]; NMDA 300 uM for 24 h, control for total neuronal death) [%] | viability at 100 µM [1, 4] [%]
1 | O=C(O)CCCc1ccccc1 [4-PBA, 4-phenylbutyric acid] | 72.20 | does not provide significant protection | 72 | 46.5% and 46.47% | does not provide significant protection |  |  |  | 
2 | OO [H2O2, hydrogen peroxide] |  |  |  |  |  | 48.6 | 62.48 |  | 
3 | CN[C@H](CC(=O)O)C(=O)O [NMDA] |  |  |  |  |  |  |  | 100 | 
4 | C[C@H](CCC(=O)NCCS(=O)(=O)O)[C@H]1CC[C@H]2[C@@H]3[C@@H](O)C[C@@H]4C[C@H](O)CC[C@]4(C)[C@H]3CC[C@]12C [TUDCA, tauroursodeoxycholic acid] | 58.59 | does not provide significant protection |  | 60.4% and 60.37% | does not provide significant protection |  |  |  | 59
